One assay has as its target T1, Histamine H3 (Cavia porcellus, UniProt Q9JI35).
T1 construct: ileum longitudinal muscle myenteric plexus membranes; from tissue; host or cells: ileum longitudinal muscle myenteric plexus membranes of male Dunkin Hartley guinea pigs
In words: Histamine H3 radioligand binding assay, [3H]-R-α-methylhistamine, guinea pig ileum longitudinal muscle myenteric plexus membranes. The conditions noted are these: 3 nM [3H]-R-α-methylhistamine, 165 min, 21±3° C., Cheng Prusoff; variance ±0.12 log units; read-out: pK1 (binding assay) (converted).

The next assay concerns the target T2, H3 receptor (Cavia porcellus, UniProt Q9JI35).
T2 construct: the longitudinal muscle layer and adhering myenteric plexus was teased away; from tissue; host or cells: ileal longitudinal muscle with adhering myenteric plexus of male Dunkin-Hartley guinea pigs
The assay can be described thus: H3 receptor bioassay (functional assay), guinea pig ileal longitudinal muscle myenteric plexus. The class given is cell-based. The settings on record: antagonism of R-(α)-methylhistamine E/[A] curve, Schild's methods; electrically stimulated guinea pig ileum; variance ±0.15 log units; read-out: pKB (functional assay) (converted). The method, boiled down:
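Longitudinal muscle-myenteric plexus strips from male Dunkin-Hartley guinea pig ileum were held in Krebs-Henseleit at 37 °C, field-stimulated (0.1 Hz, 0.5 ms, supramaximal voltage) and recorded isometrically. After compound incubation, cumulative R-(α)-methylhistamine curves were taken as % inhibition of twitch height. Antagonist affinity came from curve rightward shift by Schild analysis.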

Data on one compound can be found in patent US6080871A, “Sulfonamides and sulfamides as H3 receptor antagonists” (James Black Foundation Limited, priority 1996, dated 2000).

Each structure is given as a SMILES string.

T1 sequence (Q9JI35 whole entry): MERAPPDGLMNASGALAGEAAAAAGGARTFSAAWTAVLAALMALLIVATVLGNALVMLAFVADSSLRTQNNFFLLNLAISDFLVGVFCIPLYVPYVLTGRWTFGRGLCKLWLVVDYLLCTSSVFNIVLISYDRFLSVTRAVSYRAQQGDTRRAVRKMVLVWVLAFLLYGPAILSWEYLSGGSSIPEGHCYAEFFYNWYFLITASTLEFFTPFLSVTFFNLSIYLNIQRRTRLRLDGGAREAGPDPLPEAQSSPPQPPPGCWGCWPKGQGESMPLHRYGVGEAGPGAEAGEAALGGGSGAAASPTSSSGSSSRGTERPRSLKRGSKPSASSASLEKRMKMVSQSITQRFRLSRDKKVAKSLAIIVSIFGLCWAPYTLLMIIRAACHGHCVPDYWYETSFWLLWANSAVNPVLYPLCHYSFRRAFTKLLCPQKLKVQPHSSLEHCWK
T2 sequence (Q9JI35 whole entry): as above

As to `O=S(=O)(NCCCCCCc1c[nH]cn1)NCc1ccc(C(F)(F)F)cc1` [Example 60, N-[6-(4(5)-Imidazoyl)hexyl]-N'-(4-(trifluoromethyl)phenyl)methyl-sulfamide], the Ki at Histamine H3 was 4.57 nM. Also, the Kb on H3 receptor is 14.5 nM.
